In general, IC50 refers to the concentration that gives 50% inhibition.

In patent US9120749B2, “Quinoline derivatives and MELK inhibitors containing the same” (ONCOTHERAPY SCIENCE, INC., priority 2010, dated 2015) one finds IC50 data, which are given here for 21 molecules.

Read-outs that look alike come from different tables or passages of the source.

The test system of assay [1] is DU4475 cells. The assay can be described thus: Cell-based assay: anti-proliferative activity, Cell Counting Kit-8, 72 hours (DU4475). The settings on record: Homo sapiens, DU-4475, 72 h. (In general: Tetrazolium assays rely on reduction of a dye to a coloured formazan, in cell work by metabolically active cells.)
In assay [2] the target is MELK (Homo sapiens, UniProt Q14680). Briefly: Kinase assay: MELK activity, phosphorylation of FITC-labeled histone H3 peptide measured by IMAP fluorescence polarization. It counts as biochemical. Conditions: read-out: IC50 (μM) (kinase assay). In a few lines: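 Polarization of fluorescence served as the signal for MELK turnover of FITC-conjugated histone H3 peptide. Binding solution quenched each reaction, and plates stood 0.5 hour at room temperature before reading.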
(In general: Fluorescence polarisation rises when a labelled molecule tumbles more slowly, as on binding a larger partner.)

Assay [3] relates to A549 cells. The assay can be described thus: Cell-based assay: anti-proliferative activity, Cell Counting Kit-8, 72 hours (A549). The settings on record: Homo sapiens, A549, 72 h, 72 hours. On the procedure:
100 micro-L of cell suspension was seeded onto 96-well microtiter plate (ViewPlate-96FTC, PerkinElmer). The initial cell concentration of T47D, A549, BT-549, and HT-1197 were 3,000 cells/well, 2,000 cells/well and 2,500 cells/well, respectively. Cellular growth was determined using Cell Counting Kit-8 (DOJINDO) at 72 hours after the exposure of the candidate inhibitors. […] Accurate IC50 values were calculated as described previously.

Assay [4] relates to HT-1197 cells. Briefly: Cell-based assay: anti-proliferative activity, Cell Counting Kit-8, 72 hours (HT-1197, negative control without MELK expression). Conditions: Homo sapiens, HT1197, 72 h, HT1197 cells (negative control, no MELK expression), 72 hours. In a few lines:
(§1)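 Target-specific cytotoxicity: seeded cells treated with MELK inhibitor candidates for 72 h, proliferation quantified via CCK-8, IC50 fitted.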

The test system of assay [5] is T47D cells. Briefly: Cell-based assay: anti-proliferative activity, Cell Counting Kit-8, 72 hours (T47D). The settings on record: Homo sapiens, T47D, 72 h. In a few lines:
as §1

Setting [6] is: 50 micro-M ATP, FITC-labeled histone H3 peptide substrate, IMAP fluorescence polarization.

MELK, sequence (Q14680 whole entry, looked up): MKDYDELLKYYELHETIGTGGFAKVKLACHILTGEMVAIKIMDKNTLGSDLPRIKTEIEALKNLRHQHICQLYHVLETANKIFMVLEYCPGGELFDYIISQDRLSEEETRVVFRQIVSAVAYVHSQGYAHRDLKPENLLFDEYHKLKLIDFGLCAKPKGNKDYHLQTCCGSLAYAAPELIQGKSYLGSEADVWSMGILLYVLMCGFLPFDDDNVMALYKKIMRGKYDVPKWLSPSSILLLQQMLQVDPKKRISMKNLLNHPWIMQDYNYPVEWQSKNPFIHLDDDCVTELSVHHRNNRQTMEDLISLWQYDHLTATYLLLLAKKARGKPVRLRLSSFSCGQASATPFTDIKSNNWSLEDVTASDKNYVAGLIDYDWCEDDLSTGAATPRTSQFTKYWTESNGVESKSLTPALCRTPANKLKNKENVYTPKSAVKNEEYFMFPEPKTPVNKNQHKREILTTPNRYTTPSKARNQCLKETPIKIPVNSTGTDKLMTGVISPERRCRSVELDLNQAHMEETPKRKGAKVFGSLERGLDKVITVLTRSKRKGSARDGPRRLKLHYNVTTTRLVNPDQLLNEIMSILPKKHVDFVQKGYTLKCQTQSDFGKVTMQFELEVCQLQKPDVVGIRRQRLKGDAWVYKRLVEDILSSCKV

Take `CCC(=O)c1cnc2ccc(-c3cc(Cl)c(O)c(OC)c3)cc2c1N[C@H]1CC[C@H](CN(C)C)CC1` [Example 713]: the concentration for half-maximal inhibition (IC50) stood at 0.15 µM in assay [1]; 0.0024 µM in assay [2]; 0.18 µM in assay [3]; 4.9 µM in assay [4]; 0.2 µM in assay [5].

For the molecule `CC(=O)c1cnc2ccc(-c3cc(F)c(O)c(Cl)c3)cc2c1Nc1ccc(CN2CCN(C)CC2)cc1` [Example 656, 1-(6-(3-chloro-5-fluoro-4-hydroxyphenyl)-4-(4-((4-methylpiperazin-1-yl)methyl)phenylamino)quinolin-3-yl)ethanone], the concentration for half-maximal inhibition (IC50) was 0.27 µM in assay [1]; 0.033 µM in assay [2]; 0.41 µM in assay [3]; 6.1 µM in assay [4]; 0.19 µM in assay [5].

Consider `COc1cc(-c2ccc3ncc(C(=O)C4CC4)c(Nc4ccc(NC5CCNC5)nc4)c3c2)cc(Cl)c1O` (stereo not shown) [Example 665, (6-(3-chloro-4-hydroxy-5-methoxyphenyl)-4-(6-(pyrrolidin-3-ylamino)pyridin-3-ylamino)quinolin-3-yl)(cyclopropyl)methanone], for which the IC50 amounted to 0.22 µM in assay [1]; 0.0033 µM in assay [2]; 0.53 µM in assay [3]; 3.7 µM in assay [4]; 0.16 µM in assay [5].

As to `COc1cc(-c2ccc3ncc(C(=O)C4CC4)c(NC4CCC(N5CC[C@@H](F)C5)CC4)c3c2)cc(Cl)c1O` (stereo partly drawn) [Example 645, (R)-(6-(3-chloro-4-hydroxy-5-methoxyphenyl)-4-(4-(3-fluoropyrrolidin-1-yl)cyclohexylamino)quinolin-3-yl)(cyclopropyl)methanone], the 50% inhibitory concentration (IC50) in assay [1] is 0.29 µM; in assay [2] it was 0.0062 µM; in assay [3] it was 0.33 µM; in assay [4], 2.2 µM; in assay [5] it was 0.45 µM.

As for `COc1cc(-c2ccc3ncc(C(C)=O)c(Nc4ccc(CCN(C)C)cc4)c3c2)cc(Cl)c1O` [Example 743, 1-(6-(3-chloro-4-hydroxy-5-methoxyphenyl)-4-(4-(2-(dimethylamino)ethyl)phenylamino)quinolin-3-yl)ethanone], the concentration for half-maximal inhibition (IC50) was found to be 0.36 µM in assay [1]; 0.0042 µM in assay [2]; 0.53 µM in assay [3]; 4.8 µM in assay [4]; 0.66 µM in assay [5].

With `CC(=O)c1cnc2ccc(-c3cc(F)c(O)c(Cl)c3)cc2c1Nc1ccc(CCN(C)C)cc1` [Example 745, 1-(6-(3-chloro-5-fluoro-4-hydroxyphenyl)-4-(4-(2-(dimethylamino)ethyl)phenylamino)quinolin-3-yl)ethanone], the IC50 came to 0.063 µM in assay [1]; 0.0083 µM in assay [2]; 0.16 µM in assay [3]; 0.99 µM in assay [4]; 0.12 µM in assay [5].

Turning to `COc1cc(-c2ccc3ncc(C(=O)C4CC4)c(Nc4ccc(N5CCC[C@@H](N)C5)nc4)c3c2)cc(Cl)c1O` [Example 649, (R)-(4-(6-(3-aminopiperidin-1-yl)pyridin-3-ylamino)-6-(3-chloro-4-hydroxy-5-methoxyphenyl)quinolin-3-yl)(cyclopropyl)methanone], the concentration for half-maximal inhibition (IC50) amounted to 0.077 µM in assay [1]; 0.0021 µM in assay [2]; 0.15 µM in assay [3]; 1.4 µM in assay [4]; 0.087 µM in assay [5].

Regarding `COc1cc(-c2ccc3ncc(C(=O)C4CC4)c(Nc4cccc(CCN(C)C)c4)c3c2)cc(Cl)c1O` [Example 692, (6-(3-chloro-4-hydroxy-5-methoxyphenyl)-4-(3-(2-(dimethylamino)ethyl)phenylamino)quinolin-3-yl)(cyclopropyl)methanone], the IC50 in assay [1] worked out at 0.3 µM; in assay [2], 0.0056 µM; in assay [3], 0.37 µM; in assay [4], 5.9 µM; in assay [5] it was 1 µM.

As to `O=C(c1cnc2ccc(-c3cc(Cl)c(O)c(Cl)c3)cc2c1N[C@H]1CC[C@H](CNCCF)CC1)C1CC1` [Example 700], the concentration for half-maximal inhibition (IC50) in assay [1] is 0.25 µM; in assay [2], 0.0015 µM; in assay [3], 0.47 µM; in assay [4], 2.2 µM; in assay [5] it was 0.47 µM.

Turning to `COc1cc(-c2ccc3ncc(C(=O)C4CC4)c(Nc4ccc(CN5CCCC5)nc4)c3c2)cc(Cl)c1O` [Example 659, (6-(3-chloro-4-hydroxy-5-methoxyphenyl)-4-(6-(pyrrolidin-1-ylmethyl)pyridin-3-ylamino)quinolin-3-yl)(cyclopropyl)methanone], the IC50 in assay [1] was 0.28 µM; in assay [2], 0.013 µM; in assay [3] it was 0.32 µM; in assay [4], 7.3 µM; in assay [5] it was 0.6 µM.

For the molecule `O=C(c1cnc2ccc(-c3cc(F)c(O)c(Cl)c3)cc2c1Nc1ccc(N2CCC(O)C2)nc1)C1CC1` (stereo not shown) [Example 671, (6-(3-chloro-5-fluoro-4-hydroxyphenyl)-4-(6-(3-hydroxypyrrolidin-1-yl)pyridin-3-ylamino)quinolin-3-yl)(cyclopropyl)methanone], the concentration for half-maximal inhibition (IC50) in assay [1] stood at 0.52 µM; in assay [2], 0.025 µM; in assay [3], 0.85 µM; in assay [4], 4.9 µM; in assay [5] it was 0.3 µM.

Consider `CC(=O)c1cnc2ccc(-c3cc(Cl)c(O)c(Cl)c3)cc2c1Nc1cccc(CCN(C)C)c1` [Example 729, 1-{6-(3,5-Dichloro-4-hydroxyphenyl)-4-[3-(2-(dimethylamino)ethyl)phenylamino]quinolin-3-yl}ethanone], for which the half-maximal inhibitory concentration (IC50) turned out to be 0.1 µM in assay [1]; 0.0022 µM in assay [2]; 0.2 µM in assay [3]; 10 µM in assay [4]; 0.52 µM in assay [5].

Turning to `CC(=O)c1cnc2ccc(-c3cc(F)c(O)c(Cl)c3)cc2c1N[C@H]1CC[C@H](CN2CCCC2)CC1` [Example 731], the IC50 in assay [1] is 0.13 µM; in assay [2], 0.0047 µM; in assay [3] it was 0.17 µM; in assay [4], 1.3 µM; in assay [5], 0.11 µM.

Consider `O=C(c1cnc2ccc(-c3cc(Cl)c(O)c(Cl)c3)cc2c1Nc1ccc(N2CCC(O)C2)nc1)C1CC1` (stereo not shown) [Example 670, cyclopropyl(6-(3,5-dichloro-4-hydroxyphenyl)-4-(6-(3-hydroxypyrrolidin-1-yl)pyridin-3-ylamino)quinolin-3-yl)methanone], for which the IC50 stood at 0.59 µM in assay [1]; 0.0069 µM in assay [2]; 0.72 µM in assay [3]; 5.3 µM in assay [4]; 0.43 µM in assay [5].

With `CN1CCN(C[C@H]2CC[C@H](Nc3c(C(=O)C4CC4)cnc4ccc(-c5cc(F)c(O)c(Cl)c5)cc34)CC2)CC1` [Example 636], the 50% inhibitory concentration (IC50) was found to be 0.18 µM in assay [1], 0.2 µM in assay [3], 0.94 µM in assay [4] and 0.16 µM in assay [5].

Consider `CC(=O)c1cnc2ccc(-c3cc(Cl)c(O)c(Cl)c3)cc2c1N[C@H]1CC[C@H](CCN(C)C)CC1` [Example 739, 1-(6-(3,5-dichloro-4-hydroxyphenyl)-4-((trans-4-(2-(dimethylamino)ethyl)cyclohexyl)amino)quinolin-3-yl)ethanone], for which the IC50 in assay [1] stood at 0.099 µM; in assay [4], 4 µM; in assay [5] it was 0.14 µM.

For `COc1cc(-c2ccc3ncc(C(C)=O)c(Nc4ccc(CN5CCN(C)CC5)cc4)c3c2)cc(Cl)c1O` [Example 653, 1-(6-(3-chloro-4-hydroxy-5-methoxyphenyl)-4-(4-((4-methylpiperazin-1-yl)methyl)phenylamino)quinolin-3-yl)ethanone], the IC50 in assay [1] stood at 0.32 µM; in assay [3], 0.5 µM; in assay [4] it was 1.9 µM; in assay [5], 1.3 µM.

Regarding `CN(C)C1CCN(Cc2ccc(Nc3c(C(=O)C4CC4)cnc4ccc(-c5cc(Cl)c(O)c(Cl)c5)cc34)cc2)C1` (stereo not shown) [Example 694, cyclopropyl(6-(3,5-dichloro-4-hydroxyphenyl)-4-(4-((3-(dimethylamino)pyrrolidin-1-yl)methyl)phenylamino)quinolin-3-yl)methanone], the 50% inhibitory concentration (IC50) in assay [1] amounted to 0.12 µM; in assay [3], 0.15 µM; in assay [4], 7.5 µM; in assay [5], 0.41 µM.

With `CN(C)C1CCN(C[C@H]2CC[C@H](Nc3c(C(=O)C4CC4)cnc4ccc(-c5cc(Cl)c(O)c(Cl)c5)cc34)CC2)C1` (stereo partly shown) [Example 663], the IC50 in assay [1] came out at 0.17 µM; in assay [3] it was 0.22 µM; in assay [4], 4.6 µM; in assay [5], 0.32 µM.

For `COc1cc(-c2ccc3ncc(S(C)(=O)=O)c(N[C@H]4CC[C@H](CN(C)C)CC4)c3c2)cc(Cl)c1O` [Example 422], the half-inhibitory concentration (IC50) came out at 0.0041 µM in assay [2] (setting [6]), 0.65 µM in assay [3], 4.4 µM in assay [4] and 0.7 µM in assay [5].

Take `CCN(CC)C1CCC(Nc2c(C(=O)C3CCCC3)cnc3ccc(-c4ccc(O)c(Cl)c4)cc23)CC1` (stereo not shown) [Example 385, (6-(3-chloro-4-hydroxyphenyl)-4-(4-(diethylamino)cyclohexylamino)quinolin-3-yl)(cyclopentyl)methanone]: the IC50 in assay [2] (setting [6]) was 0.019 µM; in assay [3] it was 0.94 µM; in assay [4], 1.9 µM; in assay [5], 1.7 µM.
